Patent US7202247B2, “1,3-bis-(substituted-phenyl)-2-propyn-1-ones and their use to treat disorders” (AtheroGenics, Inc., priority 2001, dated 2007)

How the values were obtained:
[1] = system: VCAM-1; assay: In vitro VCAM-1 assay: TNF-α stimulated endothelial cells, cell-surface ELISA; type: cell-based; details: primary human aortic (HAEC) or pulmonary (HPAEC) endothelial cells, TNF-α 1 ng/ml, approximately 16 hours exposure
Procedure: Cell Culture and compound dosing: Cultured primary human aortic (HAEC) or pulmonary (HPAEC) endothelial cells were obtained from Clonetics, Inc., and were used below passage 9. Cells were seeded in 96 well plates such that they would reach 90–95% confluency by the following day. On the following day the cells were stimulated with TNF-α (1 ng/ml) in the presence or absence of compounds dissolved in DMSO such that the final concentration of DMSO is 0.25% or less. To establish a dose curve for each compound, four concentrations in 2- to 5-fold increments were used. Cells were exposed to TNF-α and compounds for approximately 16 hours. The next day the cells were examined under microscope to score for visual signs of toxicity or cell stress.
Following 16 hr exposure to TNF-α and compound the media was discarded and the cells were washed once with Hanks Balanced Salt Solution (HBSS)/Phosphate buffered saline (PBS) (1:1). Primary antibodies against VCAM-1 (0.25 μg/ml in HBSS/PBS+5% FBS) were added and incubated for 30–60 minutes at 37° C. Cells were washed with HBSS/PBS three times, and secondary antibody Horse Radish Peroxidase (HRP)-conjugated goat anti-mouse IgG (1:500 in HBSS/PBS+5% FBS) were added and incubated for 30 minutes at 37° C. Cells were washed with HBSS/PBS four time and TMB substrate were added and incubated at room temperature in the dark until there was adequate development of blue color. The length of time of incubation was typically 5–15 minutes. 2N sulfuric acid was added to stop the color development and the data was collected by reading the absorbance on a BioRad ELISA plate reader at OD 450 nm. The results are expressed as IC50 values (the concentration (micromolar) of compound required to inhibit 50% of the maximal response of the control sample stimulated by TNF-α only).

SMILES | IC50 [1] [µM] | melting point
COc1cc(OC)c(-c2cccs2)cc1C#CC(=O)c1ccc(C(=O)O)cc1 [Example 2, 4-[3-{2,4-Dimethoxy-5-(thiophen-2-yl)-phenyl}propynoyl]-benzoic Acid] | < 5 | 220 °C (dec.)
COc1cc(OC)c(-c2cccs2)cc1C#CC(=O)c1cc(OC)c(OCC(=O)O)c(OC)c1 [Example 4, {4-[3-(2,4-Dimethoxy-5-thiophen-2-yl-phenyl)-propynoyl]-2,6-dimethoxy-phenoxy}-acetic acid] | < 5 | 
COC(=O)COc1c(OC)cc(C(=O)C#Cc2cc(-c3cccs3)c(OC)cc2OC)cc1OC [Example 3, {4-[3-(2,4-Dimethoxy-5-thiophen-2-yl-phenyl)-propynoyl]-2,6-dimethoxy-phenoxy}-acetic acid methyl ester] | < 5 | 
COC(=O)c1ccc(C(=O)C#Cc2cc(-c3cccs3)c(OC)cc2OC)cc1 [Example 1, 4-[3-(2,4-dimethoxy-5-thiophen-2-yl-phenyl)-propynoyl]-benzoic acid methyl ester] |  | 198 to 200 °C
